Legend:
field violet = assay: Test D postemergence; assay type: in vivo, Viola arvensis; conditions: scale 0 to 100
In short: (§1)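 Preemergence: seeds sown in silt loam and sprayed with compounds in a non-phytotoxic solvent with surfactant; postemergence: plants at 2 to 18 cm (1- to 4-leaf stage) in peat-based medium treated likewise. After 14 to 21 days in controlled growth conditions, injury rated visually versus controls on 0 (no effect) to 100 (complete control) scale.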

oat, wild [1] = assay: Test D preemergence; assay type: in vivo, Avena fatua; conditions: Preemergence, scale 0 to 100
In short: as §1

chamomile [2] = assay: Test D postemergence; assay type: in vivo, Matricaria inodora; conditions: scale 0 to 100
In short: as §1

bluegrass = assay: Test D preemergence; assay type: in vivo, Poa annua; conditions: Preemergence, scale 0 to 100
In short: as §1

oat, wild [3] = assay: Test D postemergence; assay type: in vivo, Avena fatua; conditions: scale 0 to 100
In short: as §1

radish, wild = assay: Test D postemergence; assay type: in vivo, Raphanus raphanistrum; conditions: scale 0 to 100
In short: as §1

windgrass = assay: Test D postemergence; assay type: in vivo, Apera spica-venti; conditions: scale 0 to 100
In short: as §1

blackgrass = assay: Test D postemergence; assay type: in vivo, Alopecurus myosuroides; conditions: scale 0 to 100
In short: as §1

barley, winter = assay: Test D postemergence; assay type: in vivo, Hordeum vulgare; conditions: scale 0 to 100
In short: as §1

barley, spring = assay: Test D postemergence; assay type: in vivo, Hordeum vulgare; conditions: scale 0 to 100
In short: as §1

chamomile [4] = assay: Test D preemergence; assay type: in vivo, Matricaria inodora; conditions: Preemergence, scale 0 to 100
In short: as §1

lambsquarters = assay: Test D preemergence; assay type: in vivo, Chenopodium album; conditions: Preemergence, scale 0 to 100
In short: as §1

speedwell [5] = assay: Test D postemergence; assay type: in vivo, Veronica persica; conditions: scale 0 to 100
In short: as §1

canarygrass [6] = assay: Test D preemergence; assay type: in vivo, Phalaris minor; conditions: Preemergence, scale 0 to 100
In short: as §1

canarygrass [7] = assay: Test D postemergence; assay type: in vivo, Phalaris minor; conditions: scale 0 to 100
In short: as §1

mustard, wild = assay: Test D postemergence; assay type: in vivo, Sinapis arvensis; conditions: scale 0 to 100
In short: as §1

wheat, spring = assay: Test D preemergence; assay type: in vivo, Triticum aestivum; conditions: Preemergence, scale 0 to 100
In short: as §1

wheat, winter = assay: Test D preemergence; assay type: in vivo, Triticum aestivum; conditions: Preemergence, scale 0 to 100
In short: as §1

speedwell [8] = assay: Test D preemergence; assay type: in vivo, Veronica persica; conditions: Preemergence, scale 0 to 100
In short: as §1

oilseed rape = assay: Test D preemergence; assay type: in vivo, Brassica napus; conditions: Preemergence, scale 0 to 100
In short: as §1

CCCc1cc(C(=O)NC2CC2)nn1Cc1cc(C(F)(F)F)nn1C [Compound 202]
50: Field Violet plant response rating (field violet; Postemergence, 250 g ai/ha) | Plant response rating, Bluegrass (bluegrass; 125 g ai/ha)
20: Barley, Spring plant response rating (barley, spring; Postemergence, 31 g ai/ha) | Barley, Spring plant response rating (barley, spring; postemergence, 62 g ai/ha) | Canarygrass plant response rating (canarygrass [7]; Postemergence, 250 g ai/ha)
40: Oat, Wild plant response rating (oat, wild [3]; Postemergence, 250 g ai/ha) | Plant response rating, Canarygrass (canarygrass [6]; 62 g ai/ha)
25: Field Violet plant response rating (field violet; Postemergence, 31 g ai/ha) | Field Violet plant response rating (field violet; postemergence, 62 g ai/ha) | Oat, Wild plant response rating (oat, wild [3]; Postemergence, 31 g ai/ha) | Oat, Wild plant response rating (oat, wild [3]; postemergence, 62 g ai/ha) | Windgrass plant response rating (windgrass; Postemergence, 125 g ai/ha) | Blackgrass plant response rating (blackgrass; Postemergence, 125 g ai/ha) | Barley, Winter plant response rating (barley, winter; Postemergence, 250 g ai/ha) | Barley, Spring plant response rating (barley, spring; Postemergence, 125 g ai/ha) | Plant response rating, Wheat, Spring (wheat, spring; 250 g ai/ha) | Plant response rating, Wheat, Winter (wheat, winter; 125 g ai/ha)
75: Radish, Wild plant response rating (radish, wild; Postemergence, 250 g ai/ha) | Plant response rating, Lambsquarters (lambsquarters; 62 g ai/ha) | Speedwell plant response rating (speedwell [5]; Postemergence, 125 g ai/ha) | Plant response rating, Canarygrass (canarygrass [6]; 125 g ai/ha) | Mustard, Wild plant response rating (mustard, wild; Postemergence, 250 g ai/ha)
55: Chamomile plant response rating (chamomile [2]; Postemergence, 31 g ai/ha) | Chamomile plant response rating (chamomile [2]; postemergence, 62 g ai/ha) | Radish, Wild plant response rating (radish, wild; Postemergence, 31 g ai/ha) | Radish, Wild plant response rating (radish, wild; postemergence, 62 g ai/ha)
10: Plant response rating, Bluegrass (bluegrass; 31 g ai/ha) | Plant response rating, Canarygrass (canarygrass [6]; 31 g ai/ha) | Plant response rating, Wheat, Spring (wheat, spring; 125 g ai/ha)
5: Plant response rating, Bluegrass (bluegrass; 62 g ai/ha) | Plant response rating, Chamomile (chamomile [4]; 31 g ai/ha) | Plant response rating, Wheat, Winter (wheat, winter; 62 g ai/ha)
45: Field Violet plant response rating (field violet; Postemergence, 125 g ai/ha)
80: Plant response rating, Bluegrass (bluegrass; 250 g ai/ha)
85: Plant response rating, Canarygrass (canarygrass [6]; 250 g ai/ha)
60: Chamomile plant response rating (chamomile [2]; Postemergence, 125 g ai/ha) | Plant response rating, Wheat, Winter (wheat, winter; 250 g ai/ha)
15: Plant response rating, Oat, Wild (oat, wild [1]; 62 g ai/ha) | Windgrass plant response rating (windgrass; Postemergence, 31 g ai/ha) | Windgrass plant response rating (windgrass; postemergence, 62 g ai/ha) | Blackgrass plant response rating (blackgrass; Postemergence, 31 g ai/ha) | Blackgrass plant response rating (blackgrass; postemergence, 62 g ai/ha) | Barley, Winter plant response rating (barley, winter; Postemergence, 31 g ai/ha) | Barley, Winter plant response rating (barley, winter; Postemergence, 125 g ai/ha) | Barley, Winter plant response rating (barley, winter; postemergence, 62 g ai/ha) | Canarygrass plant response rating (canarygrass [7]; Postemergence, 31 g ai/ha) | Canarygrass plant response rating (canarygrass [7]; Postemergence, 125 g ai/ha) | Canarygrass plant response rating (canarygrass [7]; postemergence, 62 g ai/ha)
70: Speedwell plant response rating (speedwell [5]; Postemergence, 31 g ai/ha) | Speedwell plant response rating (speedwell [5]; postemergence, 62 g ai/ha) | Mustard, Wild plant response rating (mustard, wild; Postemergence, 31 g ai/ha) | Mustard, Wild plant response rating (mustard, wild; Postemergence, 125 g ai/ha) | Mustard, Wild plant response rating (mustard, wild; postemergence, 62 g ai/ha) | Plant response rating, Oilseed Rape (oilseed rape; 125 g ai/ha)
100: Plant response rating, Oat, Wild (oat, wild [1]; 250 g ai/ha) | Plant response rating, Chamomile (chamomile [4]; 62 g ai/ha) | Plant response rating, Chamomile (chamomile [4]; 125 g ai/ha) | Plant response rating, Chamomile (chamomile [4]; 250 g ai/ha) | Plant response rating, Lambsquarters (lambsquarters; 125 g ai/ha) | Plant response rating, Lambsquarters (lambsquarters; 250 g ai/ha) | Speedwell plant response rating (speedwell [5]; Postemergence, 250 g ai/ha) | Plant response rating, Speedwell (speedwell [8]; 62 g ai/ha) | Plant response rating, Speedwell (speedwell [8]; 125 g ai/ha) | Plant response rating, Speedwell (speedwell [8]; 250 g ai/ha)
30: Oat, Wild plant response rating (oat, wild [3]; Postemergence, 125 g ai/ha) | Barley, Spring plant response rating (barley, spring; Postemergence, 250 g ai/ha)
35: Windgrass plant response rating (windgrass; Postemergence, 250 g ai/ha) | Blackgrass plant response rating (blackgrass; Postemergence, 250 g ai/ha)
0: Plant response rating, Wheat, Spring (wheat, spring; 62 g ai/ha)
90: Plant response rating, Oilseed Rape (oilseed rape; 250 g ai/ha)
65: Plant response rating, Oat, Wild (oat, wild [1]; 125 g ai/ha) | Chamomile plant response rating (chamomile [2]; Postemergence, 250 g ai/ha) | Radish, Wild plant response rating (radish, wild; Postemergence, 125 g ai/ha) | Plant response rating, Oilseed Rape (oilseed rape; 62 g ai/ha)
